Measurements reported in patent publication US6525001B1, “Substituted pyrimidine and pyridine herbicides” (Mid-American Commercialization Corporation, priority 1997, dated 2003).

What was measured:
Assay type in all cases: in vivo
[1] = test system: pitted morningglory (Ipomoea lacunosa); assay: Test E pre-/postemergence/post directed
In short: (§1)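 Injury was scored visually on a 0 to 100 scale (100 = complete control) 13 to 21 days after treatment of greenhouse-grown plants. Test chemicals, in a surfactant-containing non-phytotoxic solvent, were sprayed onto soil within a day of planting, onto plants at the two to four leaf stage, or directed at the base of the plants.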

[2] = test system: alexandergrass (Brachiaria plantaginea); assay: Test E pre-/postemergence/post directed
In short: as §1

[3] = test system: surinam grass (Brachiaria decumbens); assay: Test E pre-/postemergence/post directed
In short: as §1

[4] = test system: bermudagrass (Cynodon dactylon); assay: Test E pre-/postemergence/post directed
In short: as §1

[5] = test system: common ragweed (Ambrosia elatior); assay: Test E pre-/postemergence/post directed
In short: as §1

[6] = test system: common groundsel (Senecio vulgaris); assay: Test E pre-/postemergence/post directed
In short: as §1

[7] = test system: itchgrass (Rottboellia exaltata); assay: Test E pre-/postemergence/post directed
In short: as §1

[8] = test system: large crabgrass (Digitaria sanguinalis); assay: Test E pre-/postemergence/post directed
In short: as §1

[9] = test system: johnson grass (Sorghum halepense); assay: Test E pre-/postemergence/post directed
In short: as §1

[10] = test system: sandbur (Cenchrus echinatus); assay: Test E pre-/postemergence/post directed; settings: PREEMERGENCE
In short: as §1

[11] = test system: Spanishneedles (Bidens bipinnata); assay: Test E pre-/postemergence/post directed
In short: as §1

[12] = test system: eastern black nightshade (Solanum ptycanthum); assay: Test C; settings: PREEMERGENCE
[13] = test system: wild poinsettia (Euphorbia heterophylla); assay: Test C; parameters: key: 0 was no effect; 100 was complete control; settings: PREEMERGENCE
[14] = test system: ivyleaf morningglory (Ipomoea hederacea); assay: Test C; settings: PREEMERGENCE
[15] = test system: ladysthumb smartweed (Polygonum persicaria); assay: Test C; parameters: key: 0 was no effect; 100 was complete control; settings: PREEMERGENCE
[16] = test system: lambsquarters (Chenopodium album); assay: Test C; parameters: key: 0 was no effect; 100 was complete control; settings: PREEMERGENCE
[17] = test system: large crabgrass (Digitaria sanguinalis); assay: Test C; parameters: key: 0 was no effect; 100 was complete control; settings: PREEMERGENCE
[18] = test system: velvetleaf (Abutilon theophrasti); assay: Test C; settings: PREEMERGENCE
[19] = test system: arrowleaf sida (Sida rhombifolia); assay: Test C; settings: PREEMERGENCE
[20] = test system: purple nutsedge (Cyperus rotundus); assay: Test E pre-/postemergence/post directed; parameters: key: 0 is no injury; 100 is complete control
In short: as §1

[21] = test system: sandbur (Cenchrus echinatus); assay: Test E pre-/postemergence/post directed; parameters: key: 0 is no injury; 100 is complete control; settings: POSTEMERGENCE
In short: as §1

Cc1cnc(-c2ccc(C(F)(F)F)cc2)nc1Cc1cccc(OC(F)(F)F)c1 [Compound 15]
Plant response rating, P. morninglory ([1]; POSTEMERGENCE, Rate 125 g/ha): 5
Plant response rating, P. morninglory ([1]; POSTEMERGENCE, Rate 250 g/ha): 5
Plant response rating, P. morninglory ([1]; PREEMERGENCE, Rate 32 g/ha): 5
Plant response rating, P. morninglory ([1]; PREEMERGENCE, Rate 64 g/ha): 40
Plant response rating, P. morninglory ([1]; PREEMERGENCE, Rate 125 g/ha): 75
Plant response rating, P. morninglory ([1]; PREEMERGENCE, Rate 250 g/ha): 90
Plant response rating, Alexandergrass ([2]; POSTEMERGENCE, Rate 125 g/ha): 10
Plant response rating, Alexandergrass ([2]; POSTEMERGENCE, Rate 250 g/ha): 20
Plant response rating, Alexandergrass ([2]; PREEMERGENCE, Rate 32 g/ha): 75
Plant response rating, Alexandergrass ([2]; PREEMERGENCE, Rate 64 g/ha): 80
Plant response rating, Surinam grass ([3]; POSTEMERGENCE, Rate 125 g/ha): 35
Plant response rating, Surinam grass ([3]; POSTEMERGENCE, Rate 250 g/ha): 40
Plant response rating, Surinam grass ([3]; PREEMERGENCE, Rate 32 g/ha): 20
Plant response rating, Surinam grass ([3]; PREEMERGENCE, Rate 64 g/ha): 20
Plant response rating, Bermudagrass ([4]; POSTEMERGENCE, Rate 125 g/ha): 20
Plant response rating, Bermudagrass ([4]; POSTEMERGENCE, Rate 250 g/ha): 20
Plant response rating, Bermudagrass ([4]; PREEMERGENCE, Rate 32 g/ha): 98
Plant response rating, Bermudagrass ([4]; PREEMERGENCE, Rate 64 g/ha): 98
Plant response rating, Bermudagrass ([4]; PREEMERGENCE, Rate 125 g/ha): 98
Plant response rating, Bermudagrass ([4]; PREEMERGENCE, Rate 250 g/ha): 98
Plant response rating, Com. ragweed ([5]; POSTEMERGENCE, Rate 125 g/ha): 5
Plant response rating, Com. ragweed ([5]; POSTEMERGENCE, Rate 250 g/ha): 10
Plant response rating, Com. ragweed ([5]; PREEMERGENCE, Rate 125 g/ha): 98
Plant response rating, Com. groundsel ([6]; POSTEMERGENCE, Rate 250 g/ha): 20
Plant response rating, Com. groundsel ([6]; PREEMERGENCE, Rate 64 g/ha): 98
Plant response rating, Itchgrass ([7]; POSTEMERGENCE, Rate 125 g/ha): 80
Plant response rating, Itchgrass ([7]; POSTEMERGENCE, Rate 250 g/ha): 85
Plant response rating, Itchgrass ([7]; PREEMERGENCE, Rate 32 g/ha): 10
Plant response rating, Itchgrass ([7]; PREEMERGENCE, Rate 64 g/ha): 30
Plant response rating, Itchgrass ([7]; PREEMERGENCE, Rate 125 g/ha): 60
Plant response rating, Itchgrass ([7]; PREEMERGENCE, Rate 250 g/ha): 80
Plant response rating, Large crabgrass ([8]; POSTEMERGENCE, Rate 125 g/ha): 10
Plant response rating, Large crabgrass ([8]; POSTEMERGENCE, Rate 250 g/ha): 40
Plant response rating, Large crabgrass ([8]; PREEMERGENCE, Rate 32 g/ha): 98
Plant response rating, Johnsongrass ([9]; POSTEMERGENCE, Rate 125 g/ha): 98
Plant response rating, Johnsongrass ([9]; PREEMERGENCE, Rate 32 g/ha): 60
Plant response rating, Johnsongrass ([9]; PREEMERGENCE, Rate 64 g/ha): 90
Plant response rating, Johnsongrass ([9]; PREEMERGENCE, Rate 125 g/ha): 90
Plant response rating, Sandbur ([10]; Rate 32 g/ha): 10
Plant response rating, Sandbur ([10]; Rate 64 g/ha): 20
Plant response rating, Sandbur ([10]; Rate 125 g/ha): 50
Plant response rating, Spanishneedles ([11]; POSTEMERGENCE, Rate 125 g/ha): 5
Plant response rating, Spanishneedles ([11]; POSTEMERGENCE, Rate 250 g/ha): 10
Plant response rating, Spanishneedles ([11]; PREEMERGENCE, Rate 32 g/ha): 50
Plant response rating, Spanishneedles ([11]; PREEMERGENCE, Rate 64 g/ha): 30
Plant response rating, Spanishneedles ([11]; PREEMERGENCE, Rate 125 g/ha): 98
Plant response rating, E. blacknightsh ([12]; Rate 35 g/ha): 70
Plant response rating, E. blacknightsh ([12]; Rate 70 g/ha): 95
Plant response rating, E. blacknightsh ([12]; Rate 140 g/ha): 95
Plant response rating, Wild poinsettia ([13]; Rate 35 g/ha): 0
Plant response rating, Wild poinsettia ([13]; Rate 70 g/ha): 0
Plant response rating, Wild poinsettia ([13]; Rate 140 g/ha): 20
Plant response rating, I. morningglory ([14]; Rate 35 g/ha): 15
Plant response rating, I. morningglory ([14]; Rate 70 g/ha): 20
Plant response rating, I. morningglory ([14]; Rate 140 g/ha): 65
Plant response rating, Ladysthumb ([15]; Rate 35 g/ha): 0
Plant response rating, Ladysthumb ([15]; Rate 70 g/ha): 20
Plant response rating, Ladysthumb ([15]; Rate 140 g/ha): 90
Plant response rating, Lambsquarters ([16]; Rate 35 g/ha): 0
Plant response rating, Lambsquarters ([16]; Rate 70 g/ha): 20
Plant response rating, Lambsquarters ([16]; Rate 140 g/ha): 60
Plant response rating, Large crabgrass ([17]; Rate 35 g/ha): 100
Plant response rating, Large crabgrass ([17]; Rate 70 g/ha): 100
Plant response rating, Large crabgrass ([17]; Rate 140 g/ha): 100
Plant response rating, Velvetleaf ([18]; Rate 35 g/ha): 5
Plant response rating, Velvetleaf ([18]; Rate 70 g/ha): 20
Plant response rating, Velvetleaf ([18]; Rate 140 g/ha): 70
Plant response rating, Arrowleaf sida ([19]; Rate 35 g/ha): 80
Plant response rating, Arrowleaf sida ([19]; Rate 70 g/ha): 85
Plant response rating, Arrowleaf sida ([19]; Rate 140 g/ha): 85
Plant response rating, Purple nutsedge ([20]; POSTEMERGENCE, Rate 125 g/ha): 0
Plant response rating, Purple nutsedge ([20]; POSTEMERGENCE, Rate 250 g/ha): 0
Plant response rating, Purple nutsedge ([20]; PREEMERGENCE, Rate 32 g/ha): 0
Plant response rating, Purple nutsedge ([20]; PREEMERGENCE, Rate 64 g/ha): 0
Plant response rating, Purple nutsedge ([20]; PREEMERGENCE, Rate 125 g/ha): 0
Plant response rating, Purple nutsedge ([20]; PREEMERGENCE, Rate 250 g/ha): 0
Plant response rating, Sandbur ([21]; Rate 125 g/ha): 0
Plant response rating, Sandbur ([21]; Rate 250 g/ha): 0
